Experimental data taken from patent US8198236B2, “Methods and compositions for the treatment of cancer” (Washington University, priority 2007, dated 2012).

Legend:
[1] = system: Wnt signaling; test: Wnt signaling in MMTV-Wnt1 tumors (GST-E-cadherin pull-down, c-Myc expression); format: in vivo, mice; conditions: GST-E-cadherin pull-down and c-Myc expression
Method: The GST-E-cadherin pulldown assay was performed as previously described (2). Cells expressing control or LRP6 shRNA were treated with L cells or Wnt3a-conditioned media (CM) for 4 h. Free β-catenin was determined using a GST-E-cadherin pull-down assay. Cells were lysed for 30 minutes at 4° C. Protein concentrations in lysates were quantified, and equal quantities of total proteins from different samples were incubated with GST-E-cadherin Sepharose beads for 4 h at 4° C. After incubation, the beads were washed three times and the bound proteins were eluted and separated via SDS-PAGE. Western blotting was performed using antibody to β-catenin.
In these experiments, mice bearing established MMTV-Wnt1 tumor transplants were divided into three groups (five animals per group) and were i.p. injected with PBS (vehicle), Mesd, or Mesd peptide every other day. Tumor volume was analyzed using caliper measurement. Data represent at least three independent experiments and each time point represents the mean tumor volume±SEM. *p<0.05; **p<0.01. […] Scale bar=50 μm.

[2] = mouse, in vivo
Method: In experiments shown in FIG. 23, pharmacokinetics of Mesd peptide and Mesd were examined. FIG. 23A: Amount of Mesd in serum following a single dose of protein administration. Mice were dosed at 5, 10, 20 mg/kg of Mesd via i.p. and the serum samples were collected from individual mice at the indicated time points. The levels of Mesd in serum were quantified by comparison to Mesd pure protein with known concentrations in Western blot analysis. Values are the average of triple determinations with S.D. indicated by error bars. […] Samples were obtained by terminal bleed under anesthesia at each of the indicated time points (N=3 animals per time point). Radioactivity was measured using a gamma counter and DPM converted to mass units/mL blood using the specific activity (DPM/mass) of each test substance. Data are plotted as mass U/mL of test substance with standard deviation indicated by error bars.

[3] = mouse, in vivo; remark: listed apart in the source
Method: Hemotoxylin and eosin (H&E) staining was performed on tumor xenograft tissue, skin and intestine harvested at the end of Mesd treatment.
FIG. 24D: H&E staining of tail vertebrae treated with PBS, Mesd or Mesd peptide.

[4] = system: MMTV-Wnt1 tumors; test: MMTV-Wnt1 tumor transplant growth in nude mice; format: in vivo; conditions: i.p. every other day, first dose 15 mg/kg then 10 mg/kg, three weeks
Method: Recombinant Mesd protein was prepared as described (Li Y, et al. (2005) J Cell Sci 118(22): 5305-5314). Mesd peptide, […] (SEQ ID NO: 14), was manufactured by Abgent (San Diego). Female athymic nude mice (Taconic) (6-8 weeks old) were used for passaging tumors from MMTV-Wnt1 mice (Taconic). MMTV-Wnt1 tumors were serially passaged in mice by implantation in the mammary fat pad as described (DeAlmeida V, et al. (2007) Cancer Res 67, 5371-5379). Therapeutic agents (200 μL Mesd protein, Mesd peptide or PBS) were administrated i.p. with a first dose of 15 mg/kg, followed by 10 mg/kg (9 more doses). Three groups of mice were treated every other day for three weeks and tumor volumes were measured thrice weekly.
The pharmacokinetics and bioavailability of Mesd and Mesd peptide ([…] (SEQ ID NO: 14)) were first investigated (FIG. 23). Cells from MMTV-Wnt1 tumors were injected into the mammary fat pads of female nude mice, and the resultant mice were subsequently randomly grouped when the mean tumor volume reached ca. 200 mm^3. […]
In these experiments, mice bearing established MMTV-Wnt1 tumor transplants were divided into three groups (five animals per group) and were i.p. injected with PBS (vehicle), Mesd, or Mesd peptide every other day. Tumor volume was analyzed using caliper measurement. […]

[5] = system: HCC1187 cells; test: MTT assay of Wnt3a CM-stimulated growth of HCC1187 cells; format: cell-based, human; conditions: Dkk1 10 nM, 24 h
Method: Cell growth and cell proliferation were measured by MTT assay (Promega) and BrdU incorporation using the BrdU ELISA kit (Roche Molecular Systems) according to the manufacturers' instructions. […] Breast cancer cells expressing control or LRP6 shRNA were seeded into 48-well plates. MTT-labeling reagent was added to each well 24 h later, and plates were incubated at 37° C. for 4 h. After the incubation period, the formazan crystals were dissolved in an MTT solubilization reagent and the resulting color was quantified spectrophotometrically. In some experiments, cell proliferation was measured by BrdU incorporation using the BrdU ELISA kit (Roche Molecular Systems) according to the manufacturer's instructions. Briefly, cancer cells expressing control or LRP6 shRNA were plated on 96-well plate. Cells were incubated with BrdU for 24 h, and the newly synthesized BrdU-DNA was then determined by colorimetry using an ELISA reader. All experiments were performed three times in triplicate.
In FIG. 20, * indicates p<0.05 compared to L cell CM; ** indicates p<0.01 compared to L cell CM.

[6] = system: Wnt signaling; test: TCF/LEF-luc reporter assay in Wnt-3A-treated HEK293 cells; format: cell-based; conditions: Wnt3A conditioned medium plus Dkk1 at 10 nM, 16 hours at 37° C.
Method: HEK293 cells were plated into six-well plates. For each well, 0.1 μg of the TOP-FLASHTCF luciferase construct (Upstate Biotechnology) was cotransfected with 0.8 μg Mesd-expressing vector, 0.8 μg Mesd mutant-expressing vector, or empty vector. A β-galactosidase-expressing vector (Promega, Madison, Wis.) was included as an internal control for transfection efficiency. After 48 hours, cells were lysed and both luciferase and β-galactosidase activities were determined with enzyme assay kits (Promega). The luciferase activity was determined with a luminometer using the Dual Luciferase Assay system (Promega). Luciferase activity was normalized to the activity of the β-galactosidase.
In these experiments, transfected cells were treated without Wnt-3A or with Wnt-3A plus the indicated inhibitors (Mesd and/or Dkk1) for 16 hours at 37° C. Wnt signaling was measured by quantifying the luciferase activity using a live cell imaging system.

Molecule: KGGGSKEKNKTKQDKGKKKKEGDLKSRSSKEENRAGNK [Mesd peptide]
- Wnt signaling in tumors compared to control treatment [1]: decreased Wnt signaling
- Bioavailability [2]: 60%
- Distribution into tissues [2]: rapid and widespread
- Adverse effect on small intestine (gross examination) [3]: no significant adverse effect
- Architecture of gastrointestinal compartments and skin (H&E) [3]: morphologically normal
- Bone lesions or outgrowths in tail vertebrae [3]: no significant bone lesions or outgrowths
- General health and body weight of treated mice [3]: grossly healthy and maintain their weights
- Tumor growth (tumor volume, caliper) [4]: significantly inhibit tumor growth

B1: Dkk1: Human recombinant DKK1 protein, LRP6-specific ligand and antagonist (protein)
chain: TLNSVLNSNAIKNLPPPLGGAAGHPGSAVSAAPGILYPGGNKYQTIDNYQPYPCAEDEECGTDEYCASPTRGGDAGVQICLACRKRRKRCMRHAMCCPGNYCKNGICVSSDQNHFRGEIEETITESFGNDHSTLDGYSRRTTLSSKMYHTKGQEGSVCLRSSDCASGLCCARHFWSKICKPVLKEGQVCTKHRRKGSHGLEIFQRCYCGEGLSCRIQKDHHQASNSSRLHTCQRH
- Effect on Wnt3a CM-increased cell growth [5]: abolished
- Inhibition of Wnt signaling (luciferase activity) [6]: more potent inhibitor
